{"source": "patent US20250382250A1", "about": "“STILBENE DERIVATIVE AS AHR AGONIST AND USE THEREOF” (NANJING GRITPHARMACO., LTD., priority 2022, published 2025)", "key": {"[1]": {"target": "T1, AhR (Homo sapiens, UniProt P35869)", "T1 construct": "expressed in transfected cells; host or cells: HepG2", "T1 sequence (P35869 11-848)": "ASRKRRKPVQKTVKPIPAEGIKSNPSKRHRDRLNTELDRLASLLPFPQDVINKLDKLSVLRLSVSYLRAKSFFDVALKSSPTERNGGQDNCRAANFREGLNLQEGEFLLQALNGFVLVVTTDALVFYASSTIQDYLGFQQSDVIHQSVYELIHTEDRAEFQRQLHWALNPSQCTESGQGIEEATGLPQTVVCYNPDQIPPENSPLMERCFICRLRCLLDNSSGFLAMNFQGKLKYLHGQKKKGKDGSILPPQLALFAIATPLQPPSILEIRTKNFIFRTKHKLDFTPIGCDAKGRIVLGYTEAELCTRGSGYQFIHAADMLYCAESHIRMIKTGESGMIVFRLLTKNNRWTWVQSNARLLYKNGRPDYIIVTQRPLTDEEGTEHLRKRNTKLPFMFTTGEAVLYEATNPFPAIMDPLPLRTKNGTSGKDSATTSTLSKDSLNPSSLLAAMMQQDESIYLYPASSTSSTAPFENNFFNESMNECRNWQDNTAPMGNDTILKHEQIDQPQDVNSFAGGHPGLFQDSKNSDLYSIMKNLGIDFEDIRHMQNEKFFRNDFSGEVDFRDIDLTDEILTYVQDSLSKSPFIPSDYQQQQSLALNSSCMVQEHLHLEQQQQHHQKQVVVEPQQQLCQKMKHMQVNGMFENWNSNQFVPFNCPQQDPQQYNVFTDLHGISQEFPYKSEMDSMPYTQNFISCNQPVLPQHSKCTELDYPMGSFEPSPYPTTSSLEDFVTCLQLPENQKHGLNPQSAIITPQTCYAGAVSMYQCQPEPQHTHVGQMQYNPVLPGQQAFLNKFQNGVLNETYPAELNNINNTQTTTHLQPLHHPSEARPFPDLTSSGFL", "assay": "AhR agonism luciferase reporter gene assay in transfected HepG2 cells", "format": "cell-based", "conditions": "16 h, ratio of treatment group to blank", "description": "When the cell confluence reached 80%, the culture medium was replaced with a fresh one, and the transfection working solution was added for transfection overnight. The formula of the working solution is as follows: 1 mL of Opti-MEM+7.5 μg of pCMV-AHR+7.5 μg of pTK-3×DRE-Luc+30 μL of lipo6000. • (2) Cell plating: The transfected cells were digested, prepared into a cell suspension at a concentration of 3×10^5 cells/mL, and then plated on a 96-well plate at 100 µL/well for adherent culture overnight. • (3) Formulation\nThe prepared drug-containing culture media and a blank culture medium were added to the 96-well plate described above at 100 μL/well."}, "[2]": {"test_system": "atopic dermatitis", "assay": "DNFB-induced atopic dermatitis mouse model (AD Score)", "format": "in vivo, BALB/C mice", "parameters": "scale not given here", "conditions": "DNFB mice", "description": "56 clean-grade BALB/C mice aged 6-8 weeks were subjected to 5 days of adaptive feeding and then randomized into 7 groups of 8 mice each: • A. Blank control group • B. Modeling+solvent group • C. Modeling+blank matrix group • D. Modeling+positive drug mometasone furoate group • E. Modeling+1 wt % of benvitimod group • F. […] The animal experiments were conducted in accordance with the Experimental Animal Feeding, Management and Use Guidelines of China Pharmaceutical University and in compliance with animal study ethics and regulations. As shown in the above procedures, the solvent control or DNFB was given in the morning for modeling; from day 5, the test compound ointment was administered once every afternoon at 50 mg/dose evenly on the skin surface. The specific administration method is as shown above; Specific procedures: […] Severity of atopic dermatitis was scored using the AD Score criteria The severity of the appearance of dermatitis was evaluated based on 4 indicators: A. erythema/bleeding; B. dryness; C. effusion/crusting; D. edema."}}, "note": "Marks after values point to notes of the source that are not given here.", "data": [{"smiles": "Oc1cc(/C=C/c2ccccc2)cc(O)c1C1CCCC1", "note": "[Compound 1, (E)-2-cyclopentyl-5-styryl-1,3-benzenediol]", "values": [{"measurement": "AhR receptor agonistic fold", "setting": "[1]; drug concentration 0.1 μM", "value": "3.1 ± 0.3", "unit": "fold"}, {"measurement": "AhR receptor agonistic fold", "setting": "[1]; drug concentration 1 μM", "value": "12.1 ± 0.4", "unit": "fold"}]}, {"smiles": "Oc1cc(/C=C/c2ccc(Cl)cc2)cc(O)c1C1CCCC1", "note": "[Compound 3, (E)-2-cyclopentyl-5-(4-chlorostyryl)-1,3-benzenediol]", "values": [{"measurement": "AhR receptor agonistic fold", "setting": "[1]; drug concentration 0.1 μM", "value": "4.0 ± 0.5", "unit": "fold"}, {"measurement": "AhR receptor agonistic fold", "setting": "[1]; drug concentration 1 μM", "value": "18.2 ± 0.6", "unit": "fold"}]}, {"smiles": "Oc1cc(/C=C/c2ccc(Br)cc2)cc(O)c1C1CCCC1", "note": "[Compound 4, (E)-2-cyclopentyl-5-(4-bromostyryl)-1,3-benzenediol]", "values": [{"measurement": "AhR receptor agonistic fold", "setting": "[1]; drug concentration 0.1 μM", "value": "7.8 ± 0.1", "unit": "fold"}, {"measurement": "AhR receptor agonistic fold", "setting": "[1]; drug concentration 1 μM", "value": "14.4 ± 0.3", "unit": "fold"}]}, {"smiles": "Oc1cc(/C=C/c2ccccc2)cc(O)c1C1CCCCC1", "note": "[Compound 5, (E)-2-cyclohexyl-5-styryl-1,3-benzenediol]", "values": [{"measurement": "AhR receptor agonistic fold", "setting": "[1]; drug concentration 0.1 μM", "value": "5.8 ± 0.3", "unit": "fold"}, {"measurement": "AhR receptor agonistic fold", "setting": "[1]; drug concentration 1 μM", "value": "16.6 ± 0.7", "unit": "fold"}]}, {"smiles": "Oc1cc(/C=C/c2ccc(Cl)cc2)cc(O)c1C1CCCCC1", "note": "[Compound 7, (E)-2-cyclohexyl-5-(4-chlorostyryl)-1,3-benzenediol]", "values": [{"measurement": "AhR receptor agonistic fold", "setting": "[1]; drug concentration 0.1 μM", "value": "5.1 ± 0.4", "unit": "fold"}, {"measurement": "AhR receptor agonistic fold", "setting": "[1]; drug concentration 1 μM", "value": "9.5 ± 0.5", "unit": "fold"}]}, {"smiles": "Oc1cc(/C=C/c2ccc(Br)cc2)cc(O)c1C1CCCCC1", "note": "[Compound 8, (E)-2-cyclohexyl-5-(4-bromostyryl)-1,3-benzenediol]", "values": [{"measurement": "AhR receptor agonistic fold", "setting": "[1]; drug concentration 0.1 μM", "value": "5.2 ± 0.2", "unit": "fold"}, {"measurement": "AhR receptor agonistic fold", "setting": "[1]; drug concentration 1 μM", "value": "11.8 ± 0.7", "unit": "fold"}]}, {"smiles": "Oc1cc(/C=C/c2ccccc2Cl)cc(O)c1C1CCCCC1", "note": "[Compound 9, (E)-2-cyclohexyl-5-(2-chlorostyryl)-1,3-benzenediol]", "values": [{"measurement": "AhR receptor agonistic fold", "setting": "[1]; drug concentration 0.1 μM", "value": "4.9 ± 1.9", "unit": "fold"}, {"measurement": "AhR receptor agonistic fold", "setting": "[1]; drug concentration 1 μM", "value": "17.1 ± 2.5", "unit": "fold"}]}, {"smiles": "Oc1cc(/C=C/c2cccc(Cl)c2)cc(O)c1C1CCCCC1", "note": "[Compound 10, (E)-2-cyclohexyl-5-(3-chlorostyryl)-1,3-benzenediol]", "values": [{"measurement": "AhR receptor agonistic fold", "setting": "[1]; drug concentration 0.1 μM", "value": "4.5 ± 1.0", "unit": "fold"}, {"measurement": "AhR receptor agonistic fold", "setting": "[1]; drug concentration 1 μM", "value": "14.7 ± 2.3", "unit": "fold"}]}, {"smiles": "Oc1cc(/C=C/c2ccc(F)c(F)c2)cc(O)c1C1CCCCC1", "note": "[Compound 11, (E)-2-cyclohexyl-5-(3,4-difluorostyryl)-1,3-benzenediol]", "values": [{"measurement": "AhR receptor agonistic fold", "setting": "[1]; drug concentration 0.1 μM", "value": "6.6 ± 1.6", "unit": "fold"}, {"measurement": "AhR receptor agonistic fold", "setting": "[1]; drug concentration 1 μM", "value": "20.0 ± 1.6", "unit": "fold"}]}, {"smiles": "Oc1cc(/C=C/c2cccc(F)c2F)cc(O)c1C1CCCCC1", "note": "[Compound 12, (E)-2-cyclohexyl-5-(2,3-difluorostyryl)-1,3-benzenediol]", "values": [{"measurement": "AhR receptor agonistic fold", "setting": "[1]; drug concentration 0.1 μM", "value": "6.8 ± 0.1", "unit": "fold"}, {"measurement": "AhR receptor agonistic fold", "setting": "[1]; drug concentration 1 μM", "value": "17.1 ± 0.6", "unit": "fold"}]}, {"smiles": "Oc1cc(/C=C/c2cc(F)cc(F)c2)cc(O)c1C1CCCCC1", "note": "[Compound 13, (E)-2-cyclohexyl-5-(3,5-difluorostyryl)-1,3-benzenediol]", "values": [{"measurement": "AhR receptor agonistic fold", "setting": "[1]; drug concentration 0.1 μM", "value": "9.2 ± 1.2", "unit": "fold"}, {"measurement": "AhR receptor agonistic fold", "setting": "[1]; drug concentration 1 μM", "value": "14.6 ± 0.9", "unit": "fold"}]}, {"smiles": "Oc1cc(/C=C/c2ccc(F)c(F)c2F)cc(O)c1C1CCCCC1", "note": "[Compound 14, (E)-2-cyclohexyl-5-(2,3,4-trifluorostyryl)-1,3-benzenediol]", "values": [{"measurement": "AhR receptor agonistic fold", "setting": "[1]; drug concentration 0.1 μM", "value": "13.1 ± 2.4", "unit": "fold"}, {"measurement": "AhR receptor agonistic fold", "setting": "[1]; drug concentration 1 μM", "value": "20.8 ± 1.4", "unit": "fold"}]}, {"smiles": "Oc1cc(/C=C/c2cc(F)c(F)c(F)c2)cc(O)c1C1CCCCC1", "note": "[Compound 15, (E)-2-cyclohexyl-5-(3,4,5-trifluorostyryl)-1,3-benzenediol]", "values": [{"measurement": "AhR receptor agonistic fold", "setting": "[1]; drug concentration 0.1 μM", "value": "7.5 ± 1.8", "unit": "fold"}, {"measurement": "AhR receptor agonistic fold", "setting": "[1]; drug concentration 1 μM", "value": "22.2 ± 2.8", "unit": "fold"}]}, {"smiles": "Oc1cc(/C=C/c2cccc(F)c2)cc(O)c1C1CCCC1", "note": "[Compound 16, (E)-2-cyclopentyl-5-(3-fluorostyryl)-1,3-benzenediol]", "values": [{"measurement": "AhR receptor agonistic fold", "setting": "[1]; drug concentration 0.1 μM", "value": "6.0 ± 0.8", "unit": "fold"}, {"measurement": "AhR receptor agonistic fold", "setting": "[1]; drug concentration 1 μM", "value": "18.5 ± 2.9", "unit": "fold"}]}, {"smiles": "C[C@@H]1C[C@H]2[C@@H]3CCC4=CC(=O)C=C[C@]4(C)[C@@]3(Cl)[C@@H](O)C[C@]2(C)[C@@]1(OC(=O)c1ccco1)C(=O)CCl", "note": "[Mometasone furoate, mometasone furoate, reference compound]", "values": [{"measurement": "Back AD score", "setting": "[2]; day 0, before ointment treatment (from day 5)", "value": "0.00 ± 0.00"}, {"measurement": "Back AD score", "setting": "[2]; day 4, before ointment treatment (from day 5)", "value": "3.50 ± 0.61"}, {"measurement": "Back AD score", "setting": "[2]; day 6, ointment 50 mg once daily from day 5 (1.2 wt % 2#/6#, 1 wt % benvitimod)", "value": "5.38 ± 1.65**^b"}, {"measurement": "Back AD score", "setting": "[2]; day 8, ointment 50 mg once daily from day 5 (1.2 wt % 2#/6#, 1 wt % benvitimod)", "value": "6.50 ± 1.22**^a"}, {"measurement": "Back AD score", "setting": "[2]; day 10, ointment 50 mg once daily from day 5 (1.2 wt % 2#/6#, 1 wt % benvitimod)", "value": "5.00 ± 1.00**^aabb"}]}, {"smiles": "CC(C)c1c(O)cc(/C=C/c2ccc(F)cc2)cc1O", "note": "[Reference 2#, reference compound]", "values": [{"measurement": "AhR receptor agonistic fold", "setting": "[1]; drug concentration 0.1 μM", "value": "2.5 ± 1.1", "unit": "fold"}, {"measurement": "AhR receptor agonistic fold", "setting": "[1]; drug concentration 1 μM", "value": "7.8 ± 1.0", "unit": "fold"}]}, {"smiles": "O=Cc1c2[nH]c3ccccc3c2cc2[nH]c3ccccc3c12", "note": "[Reference 3#, FICZ, reference compound]", "values": [{"measurement": "AhR receptor agonistic fold", "setting": "[1]; drug concentration 0.1 μM", "value": "2.3 ± 0.2", "unit": "fold"}, {"measurement": "AhR receptor agonistic fold", "setting": "[1]; drug concentration 1 μM", "value": "4.3 ± 0.2", "unit": "fold"}]}]}
